The target in this assay is T1, Human TREM2 (Homo sapiens, UniProt Q9NZC2).
T1 construct: expressed in transfected cells
The experiment in a line: Human TREM2 activity: cellular phosphorylation of Syk (AlphaLISA SureFire Ultra p-SYK) in HEK293/DAP12+TREM2 stable cell line. The following applies: for Emax: HEK293, read-out: Emax; for EC50: phospho-Syk AlphaLISA signal, HEK293/DAP12+TREM2 cells, concentration giving 50% of maximal response, read-out: EC50. Format: cell-based. The method, boiled down:
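HEK293 cells stably co-expressing human TREM2 and DAP12 were seeded at 10,000 cells/well and used 20–24 h later. Compounds were tested at 8 concentrations (top 100 μM, 1:6 steps, 0.5% DMSO) for 30 min at 37 °C. Syk phosphorylation at Tyr525/526 was read in lysates by AlphaLISA SureFire Ultra.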
Background: In Alpha technology, singlet oxygen from a donor bead excites a nearby acceptor bead.

[1] abbreviates: maximal response relative to reference agonist example 1B (remaining examples).

Where two headings read alike, the source gives them in different places.

T1 sequence (Q9NZC2 19-230): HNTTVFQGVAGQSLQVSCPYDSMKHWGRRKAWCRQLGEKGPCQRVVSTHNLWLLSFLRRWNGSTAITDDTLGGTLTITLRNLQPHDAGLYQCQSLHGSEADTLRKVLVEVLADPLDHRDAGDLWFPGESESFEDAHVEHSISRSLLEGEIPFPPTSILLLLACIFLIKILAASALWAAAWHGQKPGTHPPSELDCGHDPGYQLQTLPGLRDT
T1 sequence (O43914 22-113 partner): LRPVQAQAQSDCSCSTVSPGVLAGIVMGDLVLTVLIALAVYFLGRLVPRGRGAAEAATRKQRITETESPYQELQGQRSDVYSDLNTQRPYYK

In general, Emax refers to the maximal effect, on the per cent scale that the assay sets. As usually defined, the EC50 is the midpoint of the concentration-response curve. For the compound `Cc1nc2c(-c3ccc(Cl)cc3F)nc([C@H]3CCO[C@@H](c4cnn(C5CC5)c4)C3)nc2c(=O)n1C` (racemic) [Example 14, 8-(4-chloro-2-fluorophenyl)-6-((2R,4S)-2-(1-cyclopropyl-1H-pyrazol-4-yl)tetrahydro-2H-pyran-4-yl)-2,3-dimethylpyrimido[5,4-d]pyrimidin-4 (3H)-one], the concentration giving a half-maximal response (EC50) fell in the range of 100 to 1000 nM. Moreover, the Emax under setting [1] is 75 to 110%.
Turning to `Cc1cc([C@@H]2CN(c3nc(-c4ccc(F)cc4F)c4nc(C(F)(F)F)n(C)c(=O)c4n3)CCO2)ccn1` (single isomer, unassigned) [Example 154A], the concentration giving a half-maximal response (EC50) is under 1 nM. Besides, under setting [1], the Emax is 75 to 110%.
With `Cc1nc2c(-c3ccc(Cl)cc3F)nc(N3CC(c4cnn(C)c4)OC(F)(F)C3)nc2c(=O)n1C` (stereo not shown) [Example 115, 8-(4-chloro-2-fluorophenyl)-6-(2,2-difluoro-6-(1-methyl-1H-pyrazol-4-yl)morpholino)-2,3-dimethylpyrimido[5,4-d]pyrimidin-4 (3H)-one], the EC50 fell in the range of 1 to 10 nM. Besides, under setting [1], the Emax fell in the range of 75 to 110%.
As for `Cc1nc2c(-c3ccc(F)cc3F)nc(N3C[C@@H](c4cnn(C)c4)OC(F)(F)C3)nc2c(=O)n1C` (single isomer, unassigned) [Example 156A], the EC50 was 1 to 10 nM. Besides, the maximal effect (Emax) under setting [1] lay in the range of 75 to 110%.
As to `Cc1nc2c(-c3ccc(Cl)cc3F)nc(N3C[C@H](c4cnn(C)c4)OC4(CC4)C3)c(F)c2c(=O)n1C` (single isomer, unassigned) [Example 173B], the 50% effective concentration (EC50) lay in the range of 10 to 100 nM. Further, under setting [1], the maximal response (Emax) is under 75%.
For `Cc1cc([C@H]2C[C@@H](c3cc4c(=O)n(C)c(C)nc4c(-c4ccc(C(F)(F)F)cc4F)n3)CCO2)ccn1` (single isomer, unassigned) [Example 168B], the EC50 fell in the range of 1 to 10 nM. For the same compound, under setting [1], the Emax lay in the range of 75 to 110%.
Consider `Cc1nc2c(-c3ccc(C(F)(F)F)nc3)nc(N3CCC(F)(F)[C@@H](c4cnn(C)c4)C3)nc2c(=O)n1C` (single isomer, unassigned) [Example 93], for which the half-maximal effective concentration (EC50) lay within 10 to 100 nM. Under setting [1], the maximal effect (Emax) was 75 to 110%.
Take `Cc1cc([C@H]2CN(c3nc(-c4ccc(C(F)(F)F)cc4F)c4nc(C)n(C)c(=O)c4n3)C[C@@H](C)O2)ccn1` (single isomer, unassigned) [Example 179B]: the EC50 was under 1 nM. Also, the maximal effect (Emax) under setting [1] was 75 to 110%.
As for `Cc1nc2c(-c3ccc(Cl)cc3F)nc(N3CCO[C@@H](c4cnn(C)c4)C3)cc2c(=O)n1C` (single isomer, unassigned) [Example 125A], the EC50 lay within 10 to 100 nM. Further, the maximum response (Emax) under setting [1] was in the range of 75 to 110%.
In the same order, the values of `Cn1cc(C2CN(c3nc(-c4ccc(Cl)cc4F)c4ncn(C)c(=O)c4n3)CCO2)cn1` (stereo not shown) [Example 187, 8-(4-chloro-2-fluorophenyl)-3-methyl-6-(2-(1-methyl-1H-pyrazol-4-yl)morpholino)pyrimido[5,4-d]pyrimidin-4 (3H)-one] are 10 to 100 nM and under 75%.
For `Cc1nc2c(-c3ccc(C(F)(F)F)cc3F)nc([C@@H]3CCO[C@H](c4cnn(C5CC5)c4)C3)cc2c(=O)n1C` (single isomer, unassigned) [Example 153A], the EC50 was in the range of 1 to 10 nM. The maximal response (Emax) under setting [1] was over 110%.
Consider `Cc1nc2c(-c3ccc(Cl)cc3F)nc(N3C[C@H](c4cnn(C)c4)OC(C)(C)C3)cc2c(=O)n1C` (single isomer, unassigned) [Example 112B], for which the EC50 lay in the range of 100 to 1000 nM. In addition, the Emax under setting [1] is under 75%.
In the case of `Cc1nc2c(-c3ccc(Cl)cc3F)nc(N3CCO[C@@H](c4cnn(C)c4)C3)nc2c(=O)n1C` (single isomer, unassigned) [Example 1B], the EC50 was in the range of 10 to 100 nM. In addition, the maximum response (Emax) (maximal response relative to reference agonist human TREM2 MAB1828 (examples 1, 1A and 1B)) was over 110%.
In the case of `Cc1nc2c(-c3ccc(Cl)cc3F)nc(N3C[C@@H](c4cnn(C5CC5)c4)OC(C)(C)C3)nc2c(=O)n1C` (single isomer, unassigned) [Example 110A], the concentration for a half-maximal effect (EC50) was in the range of 1 to 10 nM. Also, the maximal effect (Emax) under setting [1] lay within 75 to 110%.
`Cc1nc2c(-c3ccc(C(F)(F)F)cc3F)nc([C@@H]3CCO[C@H](c4cnn(C)c4)C3)nc2c(=O)n1C` (single isomer, unassigned) [Example 65]: the 50% effective concentration (EC50) lay within 10 to 100 nM. Further, the maximum response (Emax) under setting [1] fell in the range of 75 to 110%.
As for `Cc1nc2c(-c3ccc(Cl)cc3F)nc([C@@H]3CCO[C@H](c4cnn(C)c4)C3)nc2c(=O)n1C` (single isomer, unassigned) [Example 67], the EC50 was in the range of 100 to 1000 nM. In addition, under setting [1], the Emax was over 110%.
In the same order, the values of `Cc1nc2c(-c3ccc(Cl)cc3F)nc(N3CCOC(c4cn(C)nn4)C3)nc2c(=O)n1C` (stereo not shown) [Example 73, 8-(4-chloro-2-fluorophenyl)-2,3-dimethyl-6-(2-(1-methyl-1H-1,2,3-triazol-4-yl)morpholino)pyrimido[5,4-d]pyrimidin-4 (3H)-one] are 100 to 1000 nM and 75 to 110%.
For the compound `Cn1cc([C@@H]2CN(c3nc(-c4cc(F)c(F)cc4F)c4nc(C(F)(F)F)n(C)c(=O)c4n3)CC3(CC3)O2)cn1` (single isomer, unassigned) [Example 162A], the EC50 lay in the range of 1 to 10 nM. Further, the maximum response (Emax) under setting [1] lay in the range of 75 to 110%.
In the same order, the values of `Cc1nc2c(-c3ccc(C(F)(F)F)nc3)nc(N3C[C@H](c4cnn(C)c4)OC(C)(C)C3)nc2c(=O)n1C` (single isomer, unassigned) [Example 102B] are over 1000 nM and under 75%.
In the same order, the values of `Cc1nc2c(-c3ccc(C(F)(F)F)nc3)nc(N3C[C@@H](c4cnn(C5CC5)c4)O[C@@H](C)C3)cc2c(=O)n1C` (single isomer, unassigned) [Example 184A] are 1 to 10 nM and 75 to 110%.
Regarding `Cc1cc([C@H]2CN(c3nc(-c4ccc(F)cc4F)c4nc(C(F)(F)F)n(C)c(=O)c4n3)CCO2)ccn1` (single isomer, unassigned) [Example 154B], the EC50 is 10 to 100 nM. Further, the maximal effect (Emax) under setting [1] fell in the range of 75 to 110%.
For the compound `Cc1nc2c(-c3ccc(Cl)cc3F)nc([C@@H]3CCO[C@H](c4cnn(C5CC5)c4)C3)nc2c(=O)n1C` (single isomer, unassigned) [Example 24A], the concentration giving a half-maximal response (EC50) fell in the range of 1 to 10 nM. Further, under setting [1], the maximal response (Emax) is 75 to 110%.
In the case of `Cn1cc([C@H]2CN(c3nc(-c4ccc(F)cc4F)c4nc(C(F)(F)F)n(C)c(=O)c4n3)CC3(CC3)O2)cn1` (single isomer, unassigned) [Example 165B], the EC50 fell in the range of 10 to 100 nM. In addition, the maximal response (Emax) under setting [1] fell in the range of 75 to 110%.
As for `Cc1cc([C@@H]2CN(c3nc(-c4ccc(Cl)cc4F)c4nc(C)n(C)c(=O)c4n3)C[C@H](C)O2)ccn1` (single isomer, unassigned) [Example 176A], the half-maximal effective concentration (EC50) is under 1 nM. Besides, the maximal effect (Emax) under setting [1] was 75 to 110%.
In the same order, the values of `Cc1nc2c(-c3ccc(C(F)(F)F)cc3F)cc([C@@H]3CCO[C@H](c4cnn(C5CC5)c4)C3)cc2c(=O)n1C` (single isomer, unassigned) [Example 118A] are 10 to 100 nM and 75 to 110%.
In the same order, the values of `Cc1cc([C@H]2CN(c3cc4c(=O)n(C)c(C)nc4c(-c4ccc(C(F)F)nc4)n3)CC(C)(C)O2)ccn1` (single isomer, unassigned) [Example 180B] are 10 to 100 nM and under 75%.
Consider `Cc1nc2c(-c3ccc(Cl)cc3F)nc([C@]34CCO[C@H](c5cnn(C6CC6)c5)[C@H]3C4)nc2c(=O)n1C` (single isomer, unassigned) [Example 116A], for which the EC50 fell in the range of 100 to 1000 nM. Also, under setting [1], the maximal effect (Emax) is under 75%.
In the same order, the values of `Cc1cc([C@H]2CN(c3nc(-c4ccc(F)cc4F)c4nc(C)n(C)c(=O)c4n3)C[C@@H](C)O2)ccn1` (single isomer, unassigned) [Example 175B] are 10 to 100 nM and 75 to 110%.
For `Cc1nc2c(-c3ccc(F)c(F)c3F)nc(N3CCOC(c4cnn(C)c4)C3)nc2c(=O)n1C` (stereo not shown) [Example 6, 2,3-dimethyl-6-(2-(1-methyl-1H-pyrazol-4-yl)morpholino)-8-(2,3,4-trifluorophenyl)pyrimido[5,4-d]pyrimidin-4(3H)-one], the 50% effective concentration (EC50) was over 1000 nM. The maximal response (Emax) under setting [1] fell in the range of 75 to 110%.
In the same order, the values of `Cc1nc2c(-c3ccc(F)cc3F)nc(N3C[C@@H](c4cnn(C)c4)OC(C)(C)C3)nc2c(=O)n1C` (single isomer, unassigned) [Example 121A] are 100 to 1000 nM and under 75%.
In the same order, the values of `Cc1cc([C@H]2CN(c3cc4c(=O)n(C)c(C)nc4c(-c4cc(F)c(F)cc4F)n3)CC(C)(C)O2)ccn1` (single isomer, unassigned) [Example 160B] are 100 to 1000 nM and under 75%.
In the case of `Cc1cc([C@H]2CN(c3cc4c(=O)n(C)c(C)nc4c(-c4ccc(F)cc4F)n3)CCO2)ccn1` (single isomer, unassigned) [Example 136B], the 50% effective concentration (EC50) fell in the range of 100 to 1000 nM. Besides, the maximal effect (Emax) under setting [1] was under 75%.
As to `Cc1nc2c(-c3ccc(Cl)cc3F)nc(N3C[C@@H](C)O[C@@H](c4cnn(C5CC5)c4)C3)nc2c(=O)n1C` (single isomer, unassigned) [Example 178B], the EC50 was 1 to 10 nM. Under setting [1], the maximal effect (Emax) lay within 75 to 110%.
In the same order, the values of `Cc1nc2c(-c3ccc(Cl)cc3F)nc(N3CCCc4ccncc4C3)nc2c(=O)n1C` [Example 86, 8-(4-chloro-2-fluorophenyl)-2,3-dimethyl-6-(5,6,7,9-tetrahydro-8H-pyrido[3,4-c]azepin-8-yl)pyrimido[5,4-d]pyrimidin-4(3H)-one] are over 1000 nM and under 75%.
On to `Cc1nc2c(-c3ccc(Cl)cc3F)nc(N3CCC(c4cnn(C)c4)C3)nc2c(=O)n1C` (stereo not shown) [Example 63, 8-(4-chloro-2-fluorophenyl)-2,3-dimethyl-6-[3-(1-methyl-1H-pyrazol-4-yl)pyrrolidin-1-yl]-3H,4H-pyrimido[5,4-d][1,3]diazin-4-one], for which the concentration giving a half-maximal response (EC50) was 10 to 100 nM. In addition, under setting [1], the maximum response (Emax) is under 75%.

These data come from patent publication US20260200926A1, “TREM2 MODULATORS” (Muna Therapeutics ApS, priority 2022, published 2026).
